Data as given in US12030903B2, “Antiviral compounds” (Gilead Sciences, Inc., priority 2020, dated 2024).

Experiments:
[1] = test system: Dengue serotype 2 New Guinea C (NGC) strain; experiment: DENV-2 Huh-7 EC50 (qPCR of viral RNA in infected Huh7 cells); format: cell-based; settings: Dengue virus, DENV2, Huh-7, Huh7 cells infected with Dengue serotype 2 NGC, MOI=0.1, 48 hours
Procedure: Huh7 (Human hepatocarcinoma 7) cells were maintained in 10% FCS-containing DMEM complete media. On the day of the assay, cells were trypsinized (0.1% Trypsin-EDTA), washed and infected for 2 hours in serum-free DMEM with Dengue serotype 2 New Guinea C (NGC) strain at MOI=0.1 with gentle agitation at 37° C. After 2 hours, cells were washed with serum-free media and suspended in 10% FCS-containing DMEM (Gibco, supplemented with sodium pyruvate, NEAA, Penicillin-Streptomycin). 10^5 cells were plated in triplicate in 96-well plates with compounds dispensed at graded doses (Hewlett-Packard D300 Digital Dispenser). All wells were normalized to 0.25% DMSO. At 48 hours, cells were washed with 1× PBS and all supernatants removed. Total RNA was extracted using RNEasy 96 plates (Qiagen) and used to generate first-strand cDNA using XLT cDNA 5× Supermix (QuantaBio). cDNA was used as a template in a Taqman qPCR duplex reaction specific to DENV2 viral and GAPDH gene expression. EC50 values were determined using Prism Graphpad software, with normalization to a positive control and no compound negative control wells.

[2] = Huh-7 CC50 (CellTiter Glo viability); format: cell-based, Human; settings: human, Huh7 hepatocarcinoma cells
Procedure: Human hepatocarcinoma 7 (Huh7) cells were maintained in 10% FCS-containing complete DMEM. On day of assay, cells were trypsinized with 0.1% Trypsin-EDTA, washed and cultured in triplicate at 1-2×10^4 cells/well in 96-well plates with compounds dispensed at graded doses (Hewlett-Packard D300 Digital Dispenser). All wells were normalized to 0.25% DMSO. After 48 hours, CellTiter Glo (Promega) was added and incubated for 10 minutes at room temp before reading on a luminometer. % viability curves were calculated against no compound and no cell control wells. CC50 values were determined using Prism Graphpad software.

RSV strain A2 = experiment: RSV HEp-2 EC50 (infectious cytopathic cell protection assay); format: cell-based, RSV strain A2; HEp-2 cells; settings: human respiratory syncytial virus, HEp-2, 96 h, read-out: RSV Hep-2 EC50
Procedure: Example 86. RSV HEp-2 EC50
Antiviral activity against RSV is determined using an infectious cytopathic cell protection assay in HEp-2 cells. In this assay, compounds inhibiting viral infection and/or replication produce a cytoprotective effect against the virus-induced cell killing that can be quantified using a cell viability reagent. The techniques used here are novel adaptations of methods described in published literature (Chapman et al., Antimicrob Agents Chemother. 2007, 51(9):3346-53.)
HEp-2 cells are obtained from ATCC (Manassas, VI) and maintained in MEM media supplemented with 10% fetal bovine serum and penicillin/streptomycin. Cells are passaged twice a week and kept at subconfluent stage. Commercial stock of RSV strain A2 (Advanced Biotechnologies, Columbia, MD) is titered before compound testing to determine the appropriate dilution of the virus stock that generates desirable cytopathic effect in HEp-2 cells.
For antiviral tests, HEp-2 cells are grown in large cell culture flasks to near confluency but not fully so. The compounds to be tested are prediluted in DMSO in 384-well compound dilution plates, either in an 8 or 40 sample per plate standardized dose response format. 3-fold serial dilution increments of each test compound are prepared in the plates and test samples are transferred via acoustic transfer apparatus (Echo, Labcyte) at 100 nL per well into cell culture assay 384-well plates. Each compound dilution is transferred in single or quadruplicate samples into dry assay plates, which are stored until assay is ready to go. The positive and negative controls are laid out in opposite on ends of the plate in vertical blocks (1 column).
Subsequently, an infectious mixture is prepared using an appropriate dilution of virus stock previously determined by titration with cells at a density of 50,000/mL and 20 uL/well is added to test plates w/compounds via automation (uFlow, Biotek). Each plate includes negative and positive controls (16 replicates each) to create 0% and 100% virus inhibition standards, respectively. Following the infection with RSV, testing plates are incubated for 4 days in a 37° C. cell culture incubator. After the incubation, a cell viability reagent, Cell TiterGlo (Promega, Madison, WI) is added to the assay plates, which are incubated briefly, and a luminescent readout is measured (Envision, Perkin Elmer) in all the assay plates. The RSV-induced cytopathic effect, percentage inhibition, is determined from the levels of remaining cell viability. […] Various potent anti-RSV tool compounds are used as positive controls for antiviral activity.

[3] = HEp-2 CC50 (cytotoxicity in uninfected HEp-2 cells); format: cell-based; settings: human, CellTiter Glo
Procedure: Instead, an uninfected cell mixture at the same density is added at 20 uL/well to plates containing prediluted compounds, also at 100 nL/sample. Assay plates are then incubated for 4 days followed by a cell viability test using the same CellTiter Glo reagent addition and measurement of luminescent readouts. Untreated cell and cells treated at 2 μM puromycin (Sigma, St. Louis, MO) serve as 100% and 0% cell viability control, respectively.

Row | SMILES | EC50 [1] | CC50 at 48 h [2] | EC50 (RSV strain A2) | CC50 at 4 days [3]
1 | CCOC(=O)[C@H](C)NP(=O)(OC[C@@]1(CF)O[C@@H](c2ccc3c(N)ncnn23)[C@H](O)[C@@H]1O)Oc1ccc(C(C)(C)C)cc1 (mixture of isomers) [Example 47, ethyl ((((2R,3S,4R,5S)-5-(4-aminopyrrolo[2,1-f][1,2,4]triazin-7-yl)-2-(fluoromethyl)-3,4-dihydroxytetrahydrofuran-2-yl)methoxy)(4-(tert-butyl)phenoxy)phosphoryl)-L-alaninate] | 0.65 µM | 21.4 µM | 0.389 µM | 65.9 µM
2 | CCC(=O)O[C@H]1[C@H](c2ccc3c(N)ncnn23)O[C@](CF)(CO[P@@](=O)(N[C@@H](C)C(=O)OCC(CC)CC)Oc2ccccc2)[C@H]1OC(=O)CC (single isomer, unassigned) [Example 61] | 0.568 µM | 15 µM | 0.855 µM | 19.1 µM
3 | CCC(CC)COC(=O)[C@H](C)N[P@](=O)(OC[C@@]1(CF)O[C@@H](c2ccc3c(N)ncnn23)[C@H](OC(=O)C(C)C)[C@@H]1OC(=O)C(C)C)Oc1ccccc1 (single isomer, unassigned) [Example 62] | 0.662 µM | 8.09 µM | 10.1 µM | –
4 | CC(C)C(=O)O[C@H]1[C@H](c2ccc3c(N)ncnn23)O[C@](CF)(CO[P@@](=O)(N[C@@H](C)C(=O)OC2COC2)Oc2ccccc2)[C@H]1OC(=O)C(C)C (single isomer, unassigned) [Example 73] | 0.302 µM | 9.34 µM | – | –
5 | CCC(CC)COC(=O)[C@H](C)NP(=O)(OC[C@@]1(CCl)O[C@@H](c2ccc3c(N)ncnn23)[C@H](O)[C@@H]1O)Oc1ccccc1 (stereo partly drawn) [Comp. Ex. 1, 2-ethylbutyl ((((2R,3S,4R,5S)-5-(4-aminopyrrolo[2,1-f][1,2,4]triazin-7-yl)-2-(chloromethyl)-3,4-dihydroxytetrahydrofuran-2-yl)methoxy)(phenoxy)phosphoryl)-L-alaninate, reference compound] | 2.33 µM | – | – | –
6 | CCCCCCOC(=O)[C@H](C)NP(=O)(OC[C@@]1(CF)O[C@@H](c2ccc3c(N)ncnn23)[C@H](O)[C@@H]1O)Oc1ccccc1 (stereo partly drawn) [Example 17, hexyl ((((2R,3S,4R,5S)-5-(4-aminopyrrolo[2,1-f][1,2,4]triazin-7-yl)-2-(fluoromethyl)-3,4-dihydroxytetrahydrofuran-2-yl)methoxy)(phenoxy)phosphoryl)-L-alaninate] | 0.51 µM | > 25 µM | 0.516 µM | > 100 µM
7 | CC(=O)O[C@H]1[C@H](c2ccc3c(N)ncnn23)O[C@](CF)(CO[P@@](=O)(N[C@@H](C)C(=O)OC(C)C)Oc2ccccc2)[C@H]1OC(C)=O [Example 20, (2R,3S,4S,5S)-5-(4-aminopyrrolo[2,1-f][1,2,4]triazin-7-yl)-2-(fluoromethyl)-2-((((S)-(((S)-1-isopropoxy-1-oxopropan-2-yl)amino)(phenoxy)phosphoryl)oxy)methyl) tetrahydrofuran-3,4-diyl diacetate] | 2.57 µM | > 25 µM | 3.18 µM | > 100 µM
8 | C[C@H](NP(=O)(OC[C@@]1(CF)O[C@@H](c2ccc3c(N)ncnn23)[C@H](O)[C@@H]1O)Oc1ccccc1)C(=O)OCC(C)(C)O (stereo partly drawn) [Example 26, 2-hydroxy-2-methylpropyl ((((2R,3S,4R,5S)-5-(4-aminopyrrolo[2,1-f][1,2,4]triazin-7-yl)-2-(fluoromethyl)-3,4-dihydroxytetrahydrofuran-2-yl)methoxy)(phenoxy)phosphoryl)-L-alaninate] | > 24 µM | > 25 µM | 39.3 µM | > 100 µM
9 | CO[C@@H](C)COC(=O)[C@H](C)NP(=O)(OC[C@@]1(CF)O[C@@H](c2ccc3c(N)ncnn23)[C@H](O)[C@@H]1O)Oc1ccccc1 (stereo partly drawn) [Example 30, (S)-2-methoxypropyl ((((2R,3S,4R,5S)-5-(4-aminopyrrolo[2,1-f][1,2,4]triazin-7-yl)-2-(fluoromethyl)-3,4-dihydroxytetrahydrofuran-2-yl)methoxy)(phenoxy)phosphoryl)-L-alaninate] | – | – | 4.13 µM | > 100 µM
10 | C[C@H](NP(=O)(OC[C@@]1(CF)O[C@@H](c2ccc3c(N)ncnn23)[C@H](O)[C@@H]1O)Oc1ccccc1)C(=O)O[C@@H]1CCN(C)C1 (stereo partly drawn) [Example 35, (R)-1-methylpyrrolidin-3-yl ((((2R,3S,4R,5S)-5-(4-aminopyrrolo[2,1-f][1,2,4]triazin-7-yl)-2-(fluoromethyl)-3,4-dihydroxytetrahydrofuran-2-yl)methoxy) (phenoxy)phosphoryl)-L-alaninate] | > 25 µM | > 25 µM | 42.8 µM | > 100 µM
11 | CO[C@H](C)COC(=O)[C@H](C)NP(=O)(OC[C@@]1(CF)O[C@@H](c2ccc3c(N)ncnn23)[C@H](O)[C@@H]1O)Oc1ccccc1 (stereo partly drawn) [Example 39, (R)-2-methoxypropyl ((((2R,3S,4R,5S)-5-(4-aminopyrrolo[2,1-f][1,2,4]triazin-7-yl)-2-(fluoromethyl)-3,4-dihydroxytetrahydrofuran-2-yl)methoxy)(phenoxy)phosphoryl)-L-alaninate] | – | – | 2.47 µM | > 100 µM
12 | CCOC(=O)[C@H](C)NP(=O)(OC[C@@]1(CF)O[C@@H](c2ccc3c(N)ncnn23)[C@H](O)[C@@H]1O)Oc1cccc2ccccc12 (stereo partly drawn) [Example 44, ethyl ((((2R,3S,4R,5S)-5-(4-aminopyrrolo[2,1-f][1,2,4]triazin-7-yl)-2-(fluoromethyl)-3,4-dihydroxytetrahydrofuran-2-yl)methoxy)(naphthalen-1-yloxy)phosphoryl)-L-alaninate] | 0.191 µM | 17.1 µM | 0.148 µM | 26.5 µM
13 | C[C@H](NP(=O)(OC[C@@]1(CF)O[C@@H](c2ccc3c(N)ncnn23)[C@H](O)[C@@H]1O)Oc1ccccc1)C(=O)OC1CCOCC1 (stereo partly drawn) [Example 64, tetrahydro-2H-pyran-4-yl ((((2R,3S,4R,5S)-5-(4-aminopyrrolo[2,1-f][1,2,4]triazin-7-yl)-2-(fluoromethyl)-3,4-dihydroxytetrahydrofuran-2-yl)methoxy)(phenoxy)phosphoryl)-L-alaninate] | 2 µM | > 25 µM | – | –
14 | CCC(CC)COC(=O)[C@H](C)N[P@](=O)(OC[C@@]1(CF)O[C@@H](c2ccc3c(NC(=O)c4ccccc4)ncnn23)[C@H](O)[C@@H]1O)Oc1ccccc1 [Example 75, 2-ethylbutyl ((S)-(((2R,3S,4R,5S)-5-(4-benzamidopyrrolo[2,1-f][1,2,4]triazin-7-yl)-2-(fluoromethyl)-3,4-dihydroxytetrahydrofuran-2-yl)methoxy)(phenoxy)phosphoryl)-L-alaninate] | 0.175 µM | – | – | –
